Key:
[1] = test system: T. cruzi Y strain trypomastigotes; experiment: Challenge - parasitemia and survival of immunized mice; format: in vivo, Trypanosoma cruzi; settings: without the aid of any additional adjuvants
Experimental: (§1) C3H/HeNsd female mice (6-8 weeks old) were separated in five groups (4 mice/group). The immunizations were performed via intraperitoneal (i.p.) injection. One control group was immunized with phosphate buffer saline (PBS, placebo). Two control groups for the adjuvants were given 0.9% aluminum hydroxide (AIOH) and KLH at 10 μg/mouse. Two experimental groups were administered 20 μg/mouse of MASPsyn alone and combined with 0.9% aluminum hydroxide, respectively. A total of 3 immunizations every 10-15 days were administered.
Ten days after last immunization mice were inoculated via intraperitoneal injection with 1×10^5 trypomastigote Y strain, the parasitemia and survival were monitored. The parastemia were evaluated every day for the first 12 days then every third day for a total of 21 days. FIG. 1 illustrates the resulting parasitemia and survival for each of the control and experimental groups.

[2] = test system: IL-4, IL-10, IL-12, IL-17A, and IFN-gamma; experiment: Evaluation of cytokines (Mouse Inflammatory Cytokines Multi-analyte ELISArray) in immunized, challenged mice; format: in vivo; settings: without the aid of any additional adjuvants
Experimental: as §1
Four weeks post-infection, the blood was collected by tail-bleeding and a pool of serum from each experimental group was obtained as described above. Cytokines were measured using Mouse Inflammatory Cytokines Multi-analyte ELISArray Kit. FIG. 2 illustrates cytokine profiles of immunized mice following parasite challenge. Anti-inflammatory (IL-4 and IL-10) and proinflammatory (IFN-γ, IL-12, and IL-17) cytokines were assayed in triplicate by ELISA four weeks after the last immunization and approximately two weeks after the challenge. Each bar represents the mean value±SEM (n=4 animals per group) for each treatment.

C3H/HeNsd female mice = experiment: Evaluation of the humoral immune response (serum antibody titers by ELISA after immunization); format: in vivo; settings: immunized mice, without the aid of any additional adjuvants
Experimental: as §1
Ten days after the last immunization blood was collected by tail bleeding and serum was separated from blood by centrifugation at 2,000 rpm for 10 min. The serum antibody titers were determined by an ELISA. Human Chagasic and normal serum were also tested for antibody titers against MASPsyn.

## DAENPGGEVFNDNKKGLSRV (listed as Trypanosoma cruzi) [MASPsyn]
[1]
  survivability of immunized-infected mice: increase survivability
[2]
  cytokine (e.g., IL-4, IL-10, IL-12, IL-17A, and IFN-gamma) production: able to stimulate
C3H/HeNsd female mice
  antibody production: able to stimulate

— patent US10279023B2, “Mucin-associated surface protein as a vaccine against chagas disease” (BOARD OF REGENTS, THE UNIVERSITY OF TEXAS SYSTEM, priority 2013, dated 2019)
